# Test results: patent US20080175889A1, “METHOD AND COMPOSITION FOR COATING WOUNDS AND PROTECTING SKIN USING A POLYETHER POLYURETHANE SOLUTION” (priority 2007, published 2008)
# Experiments:
# [1] = cited from earlier work
# animal's tissue = conditions: solvent alone or containing dissolved PEPU polymer; compared to THF
# rat = conditions: cited from earlier work
# [2] = published literature; cited from earlier work
# [3] = TWA; cited from earlier work
Compound,amount of solvent that can dissolve in water [1],amount of water that can dissolve in the solvent ([1]; water in solvent),penetration into an animal's tissue after applying the solvent onto the skin (animal's tissue),"LD-50 (rat; rat model, reported for both skin contact and inhalation)",carcinogenicity / teratogenicity [2],genotoxicity [2],skin irritation [2],OSHA Permissible Exposure Limit and NIOSH Recommended Exposure limit [3],LD-50 (rats) (rat; rats)
"CC1CCCO1 (stereo not shown) [2-MeOX, 2-methyloxolane]",approximately 14 % by weight,4%,much less 2-MeOX compared to THF solvent can penetrate,approximately 6 g/kg,–,–,–,–,–
"C1CCOC1 [THF, tetrahydrofuran]","miscible, in all proportions",–,–,–,not considered a carcinogen or a teratogen,nor is it genotoxic,skin irritant,200 ppm,890 mg/kg
